The values that follow come from US7547804B2, “Compounds, compositions, and methods employing same” (Myriad Genetics, Inc., priority 2002, dated 2009).

The subject of one assay is LNCaP cell lines. Put plainly: WST-1 Cell Proliferation and Viability Assay. Format: cell-based. As to conditions: Homo sapiens; LNCaP cells, compound incubation 18-72 hours. How it is done: WST-1 Cell Proliferation and Viability Assay
Cell proliferation and cell viability was assessed using the tetrazolium salt WST-1 (Roche Applied Science, Indianapolis Ind.). The assay is based on the cleavage of WST-1 (light red) by mitochondrial dehydrogenase causing the formation of formazan (dark red), which can be measured on an optical density (O.D.) reader. LNCaP cell lines were plated in 96 well tissue culture plates (Corning Costar, N.Y.) at a density of 5000 cells/well in 150 μl complete media phenol-red free (RPMI-1640 [Invitrogen, Carlsbad Calif.] and 10% fetal calf serum). This plate is termed the assay plate. After the cells are plated, they are then incubated overnight at 37 degrees Celsius in a humidified chamber containing 5% CO2 (incubator).
Compounds are added to the assay plate in 50 μl of complete media and 0.4% DMSO (v:v) making the final DMSO concentration 0.1%. The assay plate is then returned to the incubator for 18-72 hours. WST-1 reagent is then added (20 μl/well) and the plate is placed on an ELISA plate shaker for 30 minutes at room temperature. Plates are then transferred back to the incubator for an additional 3 hours. Plates are then read on a 96 well plate O.D. reader at A490-A650.
For orientation: Formazan colour is commonly taken as a measure of viable cells.
The term EC50 denotes the concentration at which the effect is half-maximal. The compound `CCN(CC)CCN(CC)c1ccc(NC(=O)c2cc(Cl)ccc2O)c(OCCc2cccc(C(F)(F)F)c2)c1` [Compound 361] had a half-maximal effective concentration (EC50) of 8 µM.

Compound `Cc1cc(C)c(CCOc2ccc(C(F)(F)F)cc2NC(=O)c2cc(Cl)ccc2O)c(C)c1` [Compound 135] had a 50% effective concentration (EC50) of 0.8 µM.

`O=C(Nc1cccc(NCc2ccc3c(c2)OCO3)c1)c1cc(Cl)ccc1O` [Compound 11]: the EC50 was 40 µM.

As for `COc1ccccc1CCOc1cccc(NC(=O)c2cc(Cl)c(F)cc2O)c1` [Compound 355], the EC50 worked out at 15 µM.

Compound `COc1ccccc1CCOc1ccc(Cl)c(NC(=O)c2cc(Cl)ccc2O)c1` [Compound 32] had an EC50 of 6 µM.

`O=C(Nc1cccc([N+](=O)[O-])c1)c1cc(Cl)ccc1O` [Compound 23]: the EC50 amounted to 4 µM.

Regarding `CN(C)c1ccc(CCOc2cccc(NC(=O)c3cc(Cl)ccc3O)c2)cc1` [Compound 47], a half-maximal effect (EC50) was put at 4 µM.

`COc1ccccc1CCOc1cccc(NC(=O)c2cc(Br)cc(F)c2O)c1` [Compound 346] gave an EC50 of 28 µM.

Compound `Cc1oc(-c2ccccc2)nc1CCOc1ccc(Cl)cc1NC(=O)c1cc(Cl)ccc1O` [Compound 132] yielded a half-maximal effective concentration (EC50) of 5 µM.

`O=C(Nc1ccc(OCCc2ccccc2)cc1C(F)(F)F)c1cc(Cl)ccc1O` [Compound 156]: the EC50 worked out at 16 µM.

`O=C(Nc1cccc(OCCc2ccccc2)c1)c1cc(Br)ccc1O` [Compound 193] yielded an EC50 of 7 µM.

In the case of `O=C(Nc1cc(C(F)(F)F)ccc1OCCc1cccc(OC(F)(F)F)c1)c1cc(Cl)ccc1O` [Compound 285], the response was half-maximal at 0.9 µM (EC50).

For the compound `COCCN(C)c1ccc(NC(=O)c2cc(Cl)ccc2O)cc1C(F)(F)F` [Compound 365], the EC50 was found to be 2 µM.

Consider `O=C(NCc1cc(C(F)(F)F)cc(C(F)(F)F)c1)c1cc(Cl)ccc1O` [Compound 122], for which the response was half-maximal at 9 µM (EC50).

Compound `Cc1ccc(OCCc2ccccc2)cc1NC(=O)c1cc(Cl)ccc1O` [Compound 43] gave an EC50 of 3 µM.

Take `COc1ccc(OCCc2ccccc2C(F)(F)F)c(NC(=O)c2cc(Cl)ccc2O)c1` [Compound 170]: the EC50 was 4 µM.

Take `O=C(Nc1cc(C(F)(F)F)ccc1N1CCN(c2ccccc2)CC1)c1cc(Cl)ccc1O` [Compound 272]: the concentration giving a half-maximal response (EC50) was determined as 0.9 µM.

For the compound `O=C(Nc1cccc(OCCc2cccc(F)c2)c1)c1cc(Cl)ccc1O` [Compound 35], the EC50 was 10 µM.

In turn, `COc1ccccc1CCCOc1cccc(NC(=O)c2cc(Cl)ccc2O)c1` [Compound 16] came in with an EC50 of 8 µM.

`O=C(Nc1cc(C(F)(F)F)ccc1NCCc1ccccc1Cl)c1cc(Cl)ccc1O` [Compound 276] came in with an EC50 of 4 µM.

As for `O=C(Nc1cc(OCCc2ccccc2)c(Cl)cc1Cl)c1cc(Cl)ccc1O` [Compound 92], a half-maximal response (EC50) required 2 µM.

The compound `Cc1ccc(COc2ccc(C(F)(F)F)cc2NC(=O)c2cc(Cl)ccc2O)cc1` [Compound 332] gave an EC50 of 0.74 µM.

Regarding `CC(COc1cccc(NC(=O)c2cc(Cl)ccc2O)c1)c1ccccc1` (centres unmarked) [Compound 19], a half-maximal response (EC50) required 7 µM.

As for `O=C(Nc1cc(C(F)(F)F)ccc1OC1CCCCC1c1ccccc1)c1cc(Cl)ccc1O` (centres unmarked) [Compound 280], the midpoint of the response, the EC50, lay at 1 µM.

On to `O=C(Nc1cc(C(F)(F)F)cc(Cl)c1OCCc1ccc(Cl)cc1)c1cc(Cl)ccc1O` [Compound 263], for which a half-maximal effect (EC50) was put at 2 µM.

Consider `CCOCCOCCOc1ccc(C(F)(F)F)cc1NC(=O)c1cc(Cl)ccc1O` [Compound 298], for which the EC50 is 3 µM.

Compound `CC(Cc1ccccc1)Oc1cccc(NC(=O)c2cc(Cl)ccc2O)c1` (centres unmarked) [Compound 95] showed an EC50 of 6 µM.

With `O=C(c1ccccc1)c1cccc(NC(=O)c2cc(Cl)ccc2O)c1` [Compound 21], it took 9 µM to reach a half-maximal effect (EC50).

As to `CC(C)c1cccc(C(=O)Nc2cccc(OCCc3ccccc3)c2)c1O` [Compound 201], the EC50 is 33 µM.

`O=C(Nc1cccc(Cl)c1OCCc1ccccc1C(F)(F)F)c1cc(Cl)ccc1O` [Compound 137] yielded an EC50 of 5 µM.

The compound `Cc1ccccc1COc1ccc(C(F)(F)F)cc1NC(=O)c1cc(Cl)ccc1O` [Compound 312] yielded a half-maximal effective concentration (EC50) of 0.85 µM.

Turning to `COc1ccc(CCOc2cccc(NC(=O)c3cc(Cl)ccc3O)c2)cc1OC` [Compound 34], the EC50 amounted to 10 µM.

`CC(C)c1cc(C(=O)Nc2cccc(OCCc3ccccc3)c2)c(O)c(C(C)C)c1` [Compound 200] gave an EC50 of 37 µM.

Turning to `COc1ccccc1CCOc1cccc(NC(=O)c2cc(Cl)cc([N+](=O)[O-])c2O)c1` [Compound 336], the EC50 was determined as 28 µM.

In the case of `COc1ccccc1CCOc1cccc(NC(=O)c2cc(-c3cccc(Cl)c3)ccc2O)c1` [Compound 349], the EC50 was determined as 10 µM.

On to `O=C(Nc1cc(C(F)(F)F)ccc1OCCOCCCl)c1cc(Cl)ccc1O` [Compound 299], for which the EC50 worked out at 1 µM.

In turn, `COc1ccccc1CCOc1cccc(NC(=O)c2cc(-c3ccsc3)ccc2O)c1` [Compound 335] came in with an EC50 of 13 µM.

In turn, `O=C(Nc1ccccc1C(F)(F)F)c1cc(Cl)ccc1O` [Compound 58] had an EC50 of 10 µM.

The compound `O=C(Nc1cc(Cl)ccc1OCCc1ccccc1C(F)(F)F)c1cc(Cl)ccc1O` [Compound 82] came in with a concentration giving a half-maximal response (EC50) of 0.7 µM.

Compound `O=CNc1cc(Cl)cc(C(=O)Nc2cccc(OCCc3ccccc3)c2)c1O` [Compound 124] registered a concentration for a half-maximal effect (EC50) of 8 µM.

With `CCCOCCOc1ccc(C(F)(F)F)cc1NC(=O)c1cc(Cl)ccc1O` [Compound 301], the response was half-maximal at 0.67 µM (EC50).

The compound `Cc1ccc(O)c(C(=O)Nc2cccc(OCCc3ccccc3)c2)c1` [Compound 212] had an EC50 of 20 µM.

Turning to `O=C(NCc1cccc(Oc2ccccc2)c1)c1cc(Cl)ccc1O` [Compound 67], the midpoint of the response, the EC50, lay at 50 µM.

Take `O=C(Nc1cc(C(F)(F)F)cc(Cl)c1OCCc1cccc(C(F)(F)F)c1)c1cc(Cl)ccc1O` [Compound 252]: the EC50 was found to be 1 µM.

As to `CN(C)c1ccc(CCOc2ccc(Cl)cc2NC(=O)c2cc(Cl)ccc2O)cc1` [Compound 108], the EC50 was 3 µM.

In turn, `O=C(Nc1cccc(OCCc2ccccc2)c1)c1ccccc1O` [Compound 197] gave an EC50 of 26 µM.

The compound `O=C(Nc1cc(C(F)(F)F)ccc1OCc1ccccc1)c1cc(Cl)ccc1O` [Compound 266] gave an EC50 of 0.9 µM.

Turning to `O=CNc1cccc(C(=O)Nc2cc(C(F)(F)F)ccc2OCCc2cccc(C(F)(F)F)c2)c1O` [Compound 261], the midpoint of the response, the EC50, lay at 6 µM.

In the case of `O=C(Nc1cccc(OCCC2CCCCC2)c1)c1cc(Cl)ccc1O` [Compound 46], the response was half-maximal at 5 µM (EC50).

Compound `O=C(Nc1cc(Cl)ccc1OCCc1ccccc1)c1cc(Cl)cc([N+](=O)[O-])c1O` [Compound 294] yielded an EC50 of 19 µM.

The compound `O=C(Nc1cc(C(F)(F)F)ccc1OCCc1ccccc1Cl)c1cc(Cl)ccc1O` [Compound 247] showed an EC50 of 0.9 µM.

`COC(=O)c1ccc(COc2ccc(C(F)(F)F)cc2NC(=O)c2cc(Cl)ccc2O)cc1` [Compound 308] showed an EC50 of 0.83 µM.

`CC(C)c1ccc(CNc2cccc(NC(=O)c3cc(Cl)ccc3O)c2)cc1` [Compound 14] yielded a half-maximal effective concentration (EC50) of 18 µM.

Compound `Cc1cccc(C(=O)Nc2cccc(OCCc3ccccc3)c2)c1O` [Compound 210] gave a 50% effective concentration (EC50) of 22 µM.

As to `CC(C)(C)c1ccc(OCCc2ccccc2)c(NC(=O)c2cc(Cl)ccc2O)c1` [Compound 102], the response was half-maximal at 2 µM (EC50).

Compound `CCC(COc1cc(NC(=O)c2cc(Cl)ccc2O)ccc1C)c1ccccc1` (centres unmarked) [Compound 127] had a half-maximal effective concentration (EC50) of 2 µM.

As to `Cc1cc(OCCc2cccc(C(F)(F)F)c2)c(NC(=O)c2cc(Cl)ccc2O)cc1Cl` [Compound 243], a half-maximal response (EC50) required 1 µM.

`CN(CCc1ccccn1)c1ccc(NC(=O)c2cc(Cl)ccc2O)c(OCCc2cccc(C(F)(F)F)c2)c1` [Compound 376] displayed an EC50 of 7.3 µM.

As for `O=C(Nc1ccccc1OCCc1ccccc1)c1cc(Cl)ccc1O` [Compound 80], the midpoint of the response, the EC50, lay at 4 µM.

As to `Cc1ccc(NC(=O)c2cc(Cl)ccc2O)cc1OCCc1ccccc1` [Compound 45], the EC50 was determined as 4 µM.

As for `O=C(Nc1cc(C(F)(F)F)ccc1OCCc1cccs1)c1cc(Cl)ccc1O` [Compound 244], the response was half-maximal at 0.9 µM (EC50).

The same assay, now with this note: Homo sapiens; LNCaP cells; flagged "Estimated": based on actual data at different concentrations.
`COc1ccc(Cl)cc1C(=O)N(C)c1cccc(OCCc2ccccc2)c1` [Compound 215]: the 50% effective concentration (EC50) was 45 µM.

As for `COc1cccc(-c2cccc(CNC(=O)c3cc(Cl)ccc3O)c2)c1` [Compound 317], the EC50 was 30 µM.

On to `O=C(Nc1cccc(OCCc2ccccc2)c1)c1cc(Cl)ccc1O` [Compound 29], for which the EC50 is 30 µM.

Consider `O=C(NCc1cc(-c2ccccc2)ccc1Cl)c1cc(Cl)ccc1O` [Compound 293], for which the EC50 was 30 µM.

Take `O=C(Nc1cc(C(F)(F)F)ccc1N1CCCC(C(=O)O)C1)c1cc(Cl)ccc1O` (centres unmarked) [Compound 316]: the EC50 is 40 µM.

With `O=C(NCc1ccccc1-c1ccccc1)c1cc(Cl)ccc1O` [Compound 237], the EC50 is 30 µM.

On to `O=C(NCc1ccccc1OCCc1ccccc1)c1cc(Cl)ccc1O` [Compound 116], for which the concentration for a half-maximal effect (EC50) is 30 µM.

For `COc1ccccc1CCOc1cccc(N(C)C(=O)c2cc(Cl)ccc2O)c1` [Compound 228], the EC50 is 30 µM.

For `O=C(NCc1cccc(C(F)(F)F)c1)c1cc(Cl)ccc1O` [Compound 121], the EC50 is 30 µM.

Regarding `O=C(NCc1cc(C(F)(F)F)ccc1Cl)c1cc(Cl)ccc1O` [Compound 318], the EC50 is 40 µM.
